US20250170050A1, “Use of Nordic plant-based ingredients for supporting a healthy skin microbiome” (Lumene Oy, priority 2022, published 2025)

Tested on: Cutibacterium acnes
Assay: In vitro growth of C. acnes by OD at 600 nm in kinetic for 49 hours, anaerobic
Format: cell-based
Conditions: oat xylitol alone
Protocol: In the present study, the effects of 4 compounds and 5 combinations were evaluated on the growth of two bacterial strains: Staphylococcus epidermidis (S. epidermidis) and Cutibacterium acnes (C. acnes). The bacterial strains were grown individually, and the growth of each bacterial strain was determined in presence of the compounds or combinations by optical density (OD) measurement at 600 nm in kinetic for 24 hours for S. epidermidis strain and for 49 hours for C. acnes strain to determine a bacterial growth curve. To determine the effect of the test compounds and combinations on the growth of bacteria, bacterial suspensions were transferred in a 96-well plate containing the compounds, the combinations or glucose tested at 0.1% and 1%. Bacterial cultures were incubated at 37° C. under agitation and under anaerobic condition for C. acnes strain. All experimental conditions were performed in n=3. Optical densities at 600 nm (OD600 nm) were then read in kinetic for 24 hours for S. epidermidis strain and 49 hours for C. acnes strain using a microplate spectrophotometer (EPOCH2, BioTek Instruments). Raw data were analysed using GraphPad PRISM software (growth curves).

Compound: OC[C@@H](O)[C@H](O)[C@@H](O)CO [Xylitol]
- growth of C. acnes: inhibits
